Reference: PubChem BioAssay AID1963875 (Molecular Pharmacology Branch, DTP, NCI, 2024)

System: KRAS-mutant PDC complex spheroid viability
Test: Anticancer human tumor 186277-243-T-J2-PDC patient-derived colon adenocarcinoma cell line growth inhibition [KRAS2]
Settings: for IC50: curve of first compound; for viability, T/C: stronger effect = lower value
Summary of the method: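 KRAS-mutant tumor cells were grown as spheroids with HUVEC endothelial cells and human MSCs as stroma. Targeted agents were tested alone and with KRAS pathway inhibitors. Doses started at or near clinical Cmax, or 10 microM, descending half-log.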

[1] = second compound 0.1 µM, first compound 0.00316 µM
[2] = second compound 0.1 µM, first compound 0.01 µM
[3] = second compound 0.1 µM, first compound 0.0316 µM
[4] = second compound 0.1 µM, first compound 0.1 µM
[5] = second compound 0.1 µM, first compound 0.316 µM
[6] = second compound 0.1 µM, first compound 1 µM
[7] = second compound 0.316 µM, first compound 0.00316 µM
[8] = second compound 0.316 µM, first compound 0.01 µM
[9] = second compound 0.316 µM, first compound 0.0316 µM
[10] = second compound 0.316 µM, first compound 0.1 µM
[11] = second compound 0.316 µM, first compound 0.316 µM
[12] = second compound 0.316 µM, first compound 1 µM
[13] = second compound 1 µM, first compound 0.00316 µM
[14] = second compound 1 µM, first compound 0.01 µM
[15] = second compound 1 µM, first compound 0.0316 µM
[16] = second compound 1 µM, first compound 0.1 µM
[17] = second compound 1 µM, first compound 0.316 µM
[18] = second compound 1 µM, first compound 1 µM
[19] = second compound 3.16 µM, first compound 0.00316 µM
[20] = second compound 3.16 µM, first compound 0.01 µM
[21] = second compound 3.16 µM, first compound 0.0316 µM
[22] = second compound 3.16 µM, first compound 0.1 µM
[23] = second compound 3.16 µM, first compound 0.316 µM
[24] = second compound 3.16 µM, first compound 1 µM
[25] = second compound 10 µM, first compound 0.00316 µM
[26] = second compound 10 µM, first compound 0.01 µM
[27] = second compound 10 µM, first compound 0.0316 µM
[28] = second compound 10 µM, first compound 0.1 µM
[29] = second compound 10 µM, first compound 0.316 µM
[30] = second compound 10 µM, first compound 1 µM
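Wherever viability, T/C is given: viability read after seven days of compound exposure; 100% = DMSO vehicle-treated spheroids so lower means less viable.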

## CCN1CCN(Cc2ccc(Nc3ncc(F)c(-c4cc(F)c5nc(C)n(C(C)C)c5c4)n3)nc2)CC1 + CNCc1ccccc1-c1csc(C(C)Nc2nc(C)nc3cc(OC)c(OC)cc23)c1
Second compound 0.1 µM
  IC50: > 1000 nM
Second compound 0.316 µM
  IC50: 970 nM
Second compound 1 µM
  IC50: 687 nM
Second compound 3.16 µM
  IC50: 115 nM
Second compound 10 µM
  IC50: < 3.16 nM
[1]
  viability, T/C: 97.5%
[2]
  viability, T/C: 86.7%
[3]
  viability, T/C: 93%
[4]
  viability, T/C: 117%
[5]
  viability, T/C: 171%
[6]
  viability, T/C: 72.5%
[7]
  viability, T/C: 87%
[8]
  viability, T/C: 91.3%
[9]
  viability, T/C: 106%
[10]
  viability, T/C: 144%
[11]
  viability, T/C: 144%
[12]
  viability, T/C: 48.3%
[13]
  viability, T/C: 90%
[14]
  viability, T/C: 85.5%
[15]
  viability, T/C: 96.2%
[16]
  viability, T/C: 132%
[17]
  viability, T/C: 119%
[18]
  viability, T/C: 23.6%
[19]
  viability, T/C: 80.7%
[20]
  viability, T/C: 85.4%
[21]
  viability, T/C: 118%
[22]
  viability, T/C: 56%
[23]
  viability, T/C: 14%
[24]
  viability, T/C: 0.14%
[25]
  viability, T/C: 0.18%
[26]
  viability, T/C: 0.37%
[27]
  viability, T/C: 0.19%
[28]
  viability, T/C: 0.15%
[29]
  viability, T/C: 0.41%
[30]
  viability, T/C: 0.15%

## CCNC(=O)CC1N=C(c2ccc(Cl)cc2)c2cc(OC)ccc2-n2c(C)nnc21 (stereo not given) + CNCc1ccccc1-c1csc(C(C)Nc2nc(C)nc3cc(OC)c(OC)cc23)c1
Second compound 0.1 µM
  IC50: > 10000 nM
Second compound 0.316 µM
  IC50: > 10000 nM
Second compound 1 µM
  IC50: 5550 nM
Second compound 3.16 µM
  IC50: 379 nM
Second compound 10 µM
  IC50: < 31.6 nM
[3]
  viability, T/C: 106%
[4]
  viability, T/C: 110%
[5]
  viability, T/C: 123%
[6]
  viability, T/C: 149%
Second compound 0.1 µM, first compound 3.16 µM
  viability, T/C: 111%
Second compound 0.1 µM, first compound 10 µM
  viability, T/C: 70.6%
[9]
  viability, T/C: 106%
[10]
  viability, T/C: 111%
[11]
  viability, T/C: 138%
[12]
  viability, T/C: 127%
Second compound 0.316 µM, first compound 3.16 µM
  viability, T/C: 84.9%
Second compound 0.316 µM, first compound 10 µM
  viability, T/C: 58.1%
[15]
  viability, T/C: 98.9%
[16]
  viability, T/C: 112%
[17]
  viability, T/C: 146%
[18]
  viability, T/C: 106%
Second compound 1 µM, first compound 3.16 µM
  viability, T/C: 62.3%
Second compound 1 µM, first compound 10 µM
  viability, T/C: 37.6%
[21]
  viability, T/C: 98.6%
[22]
  viability, T/C: 108%
[23]
  viability, T/C: 59.2%
[24]
  viability, T/C: 1.92%
Second compound 3.16 µM, first compound 3.16 µM
  viability, T/C: 0.58%
Second compound 3.16 µM, first compound 10 µM
  viability, T/C: 0.76%
[27]
  viability, T/C: 0.22%
[28]
  viability, T/C: 0.22%
[29]
  viability, T/C: 0.17%
[30]
  viability, T/C: 0.12%
Second compound 10 µM, first compound 3.16 µM
  viability, T/C: 0.11%
Second compound 10 µM, first compound 10 µM
  viability, T/C: 0.34%

## Cn1ncnc1[C@H]1c2n[nH]c(=O)c3cc(F)cc(c23)N[C@@H]1c1ccc(F)cc1 + CNCc1ccccc1-c1csc(C(C)Nc2nc(C)nc3cc(OC)c(OC)cc23)c1
Second compound 0.1 µM
  IC50: > 100 nM
Second compound 0.316 µM
  IC50: > 100 nM
Second compound 1 µM
  IC50: > 100 nM
Second compound 3.16 µM
  IC50: < 0.316 nM
Second compound 10 µM
  IC50: < 0.316 nM
Second compound 0.1 µM, first compound 0.000316 µM
  viability, T/C: 113%
Second compound 0.1 µM, first compound 0.001 µM
  viability, T/C: 109%
[1]
  viability, T/C: 109%
[2]
  viability, T/C: 101%
[3]
  viability, T/C: 83.8%
[4]
  viability, T/C: 68.9%
Second compound 0.316 µM, first compound 0.000316 µM
  viability, T/C: 117%
Second compound 0.316 µM, first compound 0.001 µM
  viability, T/C: 106%
[7]
  viability, T/C: 115%
[8]
  viability, T/C: 89.3%
[9]
  viability, T/C: 76.4%
[10]
  viability, T/C: 68.7%
Second compound 1 µM, first compound 0.000316 µM
  viability, T/C: 112%
Second compound 1 µM, first compound 0.001 µM
  viability, T/C: 110%
[13]
  viability, T/C: 97.9%
[14]
  viability, T/C: 86%
[15]
  viability, T/C: 70.4%
[16]
  viability, T/C: 59.5%
Second compound 3.16 µM, first compound 0.000316 µM
  viability, T/C: 25.5%
Second compound 3.16 µM, first compound 0.001 µM
  viability, T/C: 0.4%
[19]
  viability, T/C: 28.8%
[20]
  viability, T/C: 12.7%
[21]
  viability, T/C: 14.5%
[22]
  viability, T/C: 10.9%
Second compound 10 µM, first compound 0.000316 µM
  viability, T/C: 0.14%
Second compound 10 µM, first compound 0.001 µM
  viability, T/C: 0.14%
[25]
  viability, T/C: 0.14%
[26]
  viability, T/C: 0.13%
[27]
  viability, T/C: 0.13%
[28]
  viability, T/C: 0.21%
